Tests used:
Cecal Lig. Shock = test: Long-term survival, cecal ligation shock with blockade in intestinal lumen and peritoneum; assay type: in vivo, rat; conditions: for survival rate (survivors/treated): alternative serine protease inhibitors
Description: (§1) A study of the long term survival after blockade of digestive enzymes provided further support to the findings. In preparation for this application the inventors carried out pilot studies in the rat with (a) hemorrhagic, (b) endotoxic and (c) cecal ligation shock, followed by an observation period for two weeks until normal cage activities were recorded in survivors. Without food restriction, in hemorrhagic shock the mean blood pressure was reduced for two hours to 35 mmHg followed by return of all blood volume but no further resuscitation. The digestive enzymes were blocked at 1 hour after hypotension by direct infusion of ANGD (0.37 mM, 15 ml) into the intestinal lumen after a temporary exposure via a midline incision. In endotoxic shock, the rats received gram-negative endotoxin (5 mg/kg, i.v.); the digestive enzymes were blocked in the same way at 1 hour after endotoxin administration. No other agent was administered. In cecal ligation shock both the digestive enzymes in the lumen of the intestine as well as inside the peritoneum were blocked with ANGD. […] In contrast to untreated controls, all treated survivors returned after anesthesia within hours to normal activity (walking, climbing, grooming, drinking, eating, bowel movements) and within 3 days to normal weight gain. Furthermore, treatment with alternative serine protease inhibitors (CYCLOKAPRON, tranexamic acid; TRASYLOL, aprotinin) in cecal ligation shock gave significant survival rates (5/5 rats, P<0.0079; 4/5 rats, P<0.02, respectively).

[1] = test system: superior mesenteric artery occlusion (SMAO)-induced shock; test: Delayed intestinal lavage with protease inhibitor during reperfusion after SMAO; assay type: in vivo, Male Wistar rats
Description: In one series of experiments, the inventors discovered that delayed inhibition of digestive enzymes in the lumen of the intestine reduces inflammatory markers after shock. As a clinically relevant situation, the inventors examined the effectiveness of a delayed intestinal protease inhibition during reperfusion after SMAO. […] Intestinal ischemia-induced endotoxemia was prevented by digestive enzyme inhibition.
In summary, delayed intestinal protease inhibition serves to improve experimental SMAO-induced shock by reducing intestinal injury, the level of cell activation in plasma and in the microcirculation, and by restoring the blood pressure.

[2] = test system: intestinal ischemia-induced shock; test: Intra-intestinal pancreatic protease inhibition in intestinal ischemia and reperfusion (SMAO); assay type: in vivo
Description: These experiments were designed to examine whether inflammatory mediators generated in the intestine by digestive enzymes are released early into the circulation and may contribute to the severe systemic inflammatory response syndrome during shock, a condition that involves the microcirculation in peripheral organs. Intestinal ischemia and reperfusion-induced hypotension upon reperfusion was accompanied by a significant increase in the level of neutrophil activating factors in the intestine and plasma. During reperfusion a significant increase in leukocyte-endothelium interactions in post-capillary venules and parenchymal cell death are observed in the cremaster muscle in controls after SMAO. […] In addition, ischemia-induced intestinal mucosal injury is attenuated with intestinal pancreatic protease inhibition.

[3] = test system: septic shock with a lethal dose of endotoxin; test: Intra-luminal lavage after lethal dose of endotoxin (septic shock); assay type: in vivo, rat; conditions: endotoxin 4 mg/kg i.v.
Description: Sepsis is accompanied by severe inflammation whose mechanism remains uncertain. The inventors examined the possibility that pancreatic digestive enzymes may also be involved in inflammation in an experimental form of septic shock with a lethal dose of endotoxin in the rat. Immediately after intravenous endotoxin administration, the small intestine was subjected to intra-luminal lavage with and without an inhibitor of pancreatic digestive proteases (FOY, gabexate mesilate). After endotoxin administration (4 mg/kg, gram-negative), control rats developed hypotension, tachycardia, hyperventilation and leukopenia. The intestine and plasma contained mediators that activated leukocytes. The leukocyte-endothelial interaction within the cremaster muscle microcirculation was enhanced. […] These experiments indicate that inflammatory mediators derived from the intestine by digestive proteases may be involved in the prolonged inflammatory response and may sustain symptoms of sepsis after an endotoxin challenge. A bolus administration of endotoxin causes a transient inflammation response and elevated intestinal permeability. But the sustained inflammation that leads to multi-organ failure in this situation is caused by auto-digestion due to escape of pancreatic digestive enzymes from the lumen of the intestine due to the elevated mucosal permeability.

septic shock = conditions: FDA approved treatment; more recent trials could not confirm the effectiveness; cited from earlier work
hemorrhagic shock [4] = test: Enteroclysis with digestive protease blockade in porcine hemorrhagic shock; assay type: in vivo, pigs
Description: The inventors examined the utility of intestinal lavage in a porcine model of hemorrhagic shock. An objective of this study was to determine the effect of digestive protease blockade in the lumen of the intestine during hemorrhagic shock. The animals (16 pigs) were subjected to a shock that mimics clinical events. Pigs were bled 30 ml/kg over 30 minutes and maintained at a mean arterial pressure of 30 mmHg for 60 minutes and shed blood was then used to maintain a pressure of 45 mmHg for three hours.

[5] = test system: pancreatic digestive enzymes; test: Enzyme inhibitors administered directly into the circulation (i.v., i.a., i.m.) in shock; assay type: in vivo; conditions: administered directly into the circulation (i.v., i.a., i.m.) instead of the lumen of the intestine
Description: From a mechanistic point of view, an important feature is the fact that the significant protection rendered by the inhibition of pancreatic digestive enzymes is only provided if the enzymes are blocked inside the lumen of the intestine. […] This observation supports the hypothesis that digestive enzymes in the lumen of the intestine—where they are fully activated and in high concentrations—are the major enzymes in acute intestinal ischemia. They produce inflammatory mediators that are carried towards the central circulation via the portal venous system, but also via the intestinal lymphatics.

Hemorrhagic Shock [6] = test: Long-term survival, hemorrhagic shock with intra-intestinal enzyme blockade; assay type: in vivo, rat; conditions: ANGD 0.37 mM, 15 ml into intestinal lumen at 1 hour after hypotension; two weeks observation; P < 0.01
Description: as §1, with “Furthermore, treatment with alternative serine protease inhibitors (CYCLOKAPRON, tranexamic acid; TRASYLOL, aprotinin) in cecal ligation shock gave significant survival rates (5/5 rats, P<0.0079; 4/5 rats, P<0.02, respectively).” left out

Endotoxic Shock = test: Long-term survival, endotoxic shock with intra-intestinal enzyme blockade; assay type: in vivo, rat; conditions: endotoxin 5 mg/kg i.v.; blockade at 1 hour; two weeks observation; P < 0.004
Description: as §1, with “Furthermore, treatment with alternative serine protease inhibitors (CYCLOKAPRON, tranexamic acid; TRASYLOL, aprotinin) in cecal ligation shock gave significant survival rates (5/5 rats, P<0.0079; 4/5 rats, P<0.02, respectively).” left out

[7] = test system: hemorrhagic, endotoxic and cecal ligation shock; test: Long-term survival pilot studies, observations stated for all three shock models together; assay type: in vivo, rat
Description: as §1

[8] = test system: plasma enzymatic activity (cleavage of the extracellular domain of the insulin receptor); test: Shock plasma protease activity cleaving the insulin receptor extracellular domain on donor cells; assay type: cell-based; conditions: plasma of rats in hemorrhagic shock collected at 4 hours; results not shown
Description: It was further shown that plasma of shock rats has protease activity and causes cleavage of the extracellular domain of the insulin receptor, E-cadherin, and CAT-1. In all forms of shock there is consistently proteolytic activity in plasma. Therefore the inventors investigated the ability of central venous plasma of rats in hemorrhagic shock (collected at 4 hours) to cleave the extracellular domain of the insulin receptor a by using an antibody against the extracellular binding domain of insulin combined with membrane receptor density measurements. Exposure of normal donor cells to plasma from shock rats, but not to plasma of control rats, causes extensive cleavage of the insulin binding domain. Furthermore, this cleavage causes also a reduction of the glucose transport into the cell cytoplasm. […] There is also a significant cleavage of the extracellular domain of the tight junction protein E-cadherin in intestinal epithelium and CAT-1 in leukocytes.

hemorrhagic shock [9] = test: Survival of lab rodents in hemorrhagic shock given basic shock care with or without inhibitor; assay type: in vivo; conditions: 10 of 19 rodents treated; one of nine untreated survived
Description: The researchers then began animal studies. The present invention is based on the latest research using rodent models of human hemorrhagic shock. Here it has been discovered that the sudden lowering of blood pressure that occurs in people suffering from […] can provoke the body's digestive enzymes to break down the body's own intestinal tissue as if it were food. Such enzymes' abnormal actions may be defined as “auto-digestion.” Auto-digestion is dangerous because not only does it injure healthy tissue but also contributes to multi-organ failure, which can be fatal.
The healthy cells of the animals' intestinal tissue react to auto-digestion by releasing a slew of substances that can be toxic to the heart and other body organs. These substances, termed cytotoxic mediators, can reach these body organs via the blood stream. In their latest studies, shock was induced in 19 lab rodents, all of which were then treated with therapies that mirror the emergency room care given to many human patients who suffer shock, which typically occurs when blood flow to the heart, lungs and other body organs is slowed as a result of trauma, dehydration, heart attack or stroke.
A total of 10 of the 19 lab rodents in shock were also treated with the experimental digestive enzyme inhibitor called ANGD. […] However, only one of the nine “untreated” animals in shock survived. […]

[10] = test system: cytotoxic factors (free fatty acids) of intestinal homogenates; test: Cell death caused by rat small intestine homogenates; assay type: cell-based; conditions: homogenization of intestinal wall in the presence of the inhibitor
Description: Breakdown of free fatty acid binding proteins by proteases causes release of free fatty acids to act as powerful cytotoxic mediators.

[11] = FOY 0.37 mM, delayed lavage at 40 min after reperfusion
[12] = 100 ml/kg of 0.37 mM in GOLYTELY via duodenal catheter
[13] = blockade in lumen of intestine and peritoneum, two weeks observation, P < 0.001

Molecule: NC[C@H]1CC[C@H](C(=O)O)CC1 [CYCLOKAPRON, tranexamic acid]
- survival rate (survivors/treated) (Cecal Lig. Shock): 5/5

Molecule: CCOC(=O)c1ccc(OC(=O)CCCCCN=C(N)N)cc1.CS(=O)(=O)O [FOY, gabexate mesilate]
- formation of intestine-derived leukocyte activation factors [1, 11]: decreased formation
- intestinal injury [1, 11]: decreased
- blood pressure ([1]; FOY 0.37 mM, delayed lavage at 40 min after reperfusion, SMAO 100 min): highly significant restoration of the initial blood pressure before shock
- leukocytes adhesion in post-capillary venules ([1]; cremaster muscle microcirculation): lower leukocytes adhesion
- cell death in the cremaster muscle microcirculation ([1]; rat, in vivo): reduced cell death
- intestinal ischemia-induced endotoxemia ([1]; rat, in vivo): prevented
- leukocyte-endothelial interactions (rolling and firm adhesion to the endothelium) ([2]; cremaster muscle): almost completely abolished
- cell death (propidium iodine labeling) in the cremaster muscle ([2]; in vivo): almost completely abolished
- ischemia-induced intestinal mucosal injury ([2]; in vivo): attenuated
- blood pressure ([2]; intra-intestinal, 0.37 mM): stable blood pressure throughout the experiment
- cell activation ([2]; intra-intestinal, 0.37 mM): almost completely abolished
- cell injury in peripheral skeletal muscle microcirculation [3]: reduces
- indices of inflammation in plasma [3]: reduces all indices
- hemodynamic parameters ([3]; intra-luminal lavage immediately after): significantly improved

Molecule: drotrecogin alfa (activated) [XIGRIS]
- survival benefit (septic shock): minor but confirmed survival benefit

Molecule: N=C(N)c1ccc2cc(OC(=O)c3ccc(N=C(N)N)cc3)ccc2c1 [ANGD, 6-amidino-2-naphthyl p-guanidobenzoate dimethane-sulfate]
- protease activity in the intestinal lumen and in plasma throughout the experiment (hemorrhagic shock [4]; [12]): persistent suppression
- protein and protease levels in the duodenum during enteroclysis (hemorrhagic shock [4]; [12]): significant reductions
- leukocyte infiltration into the lung (hemorrhagic shock [4]; p=0.04): lower in treated than control animals
- liver and small intestine injury (hemorrhagic shock [4]; pig, in vivo): less injury
- transfusion requirement of shed blood (hemorrhagic shock [4]; versus 30±0.43 ml/kg in controls, p=0.002): 18.1 ± 4.5 mL/kg
- level of neutrophil activation after resuscitation (hemorrhagic shock [4]; versus 46.9±4.5% in controls, p=0.0002): 31.1±3.3%
- protection against inflammation in shock [5]: less, and in some cases no protection
- Non-Survivor (Hemorrhagic Shock [6]): 2 number of rats
- Survivor (Hemorrhagic Shock [6]): 10 number of rats
- Non-Survivor (Endotoxic Shock): 1 number of rats
- Survivor (Endotoxic Shock): 10 number of rats
- Non-Survivor (Cecal Lig. Shock; [13]): 1 number of rats
- Survivor (Cecal Lig. Shock; [13]): 9 number of rats
- survival rate versus untreated controls ([7]; in each shock model): significantly enhanced survival rate
- return of treated survivors to normal weight gain ([7]; rat, in vivo): ≤ 3 days
- return of treated survivors to normal activity after anesthesia ([7]; walking, climbing, grooming, drinking, eating, bowel movements): within hours
- block of plasma enzymatic activity [8]: more than 50%
- survival (survivors of treated animals) (hemorrhagic shock [9]): Eight of the ten

Molecule: aprotinin [TRASYLOL]
- protection against inflammation in shock [5]: less, and in some cases no protection
- survival rate (survivors/treated) (Cecal Lig. Shock): 4/5

Molecule: CCCCCCCCCCC[C@@H](C[C@@H]1OC(=O)[C@H]1CCCCCC)OC(=O)[C@H](CC(C)C)NC=O [orlistat]
- cell death after protease digestion [10]: prevented cell death

— patent publication US9272034B2, “Treatment of conditions related to shock” (The Regents of the University of California, priority 2007, dated 2016)
